Patent US20100113584A1, “NOVEL USE OF (-)-EPIGALLOCATECHIN GALLATE” (priority 2007, published 2010)

Assays:
[1] = tested on: skeletal muscle fibers of medial gastrocnemius muscle; test: Fiber type quantification in medial gastrocnemius muscle (immune-histochemistry, cytochrome oxidase staining); format: in vivo, mice; settings: 2 months
From the text: (§1) Male C57BL/6J mice (5 weeks old) were purchased from Charles River (Sulzfeld, Germany). All mice initially received a high-fat diet (Kliba#2154, Provimi Kliba AG, Kaiseraugst, Switzerland) for 3 months. Thereafter, mice were randomly assigned to 5 groups. • Group 1: Low-fat diet, restricted to cage normal activity (Low fat sedentary, n=11) • Group 2: High-fat diet, restricted to cage normal activity (High fat sedentary, n=11) • Group 3: High-fat diet containing 0.5% w/w EGCG, restricted to cage normal activity (High fat+EGCG sedentary, n=10) • Group 4: High-fat diet, free access to running wheel (High fat exercise, n=10) • Group 5: High-fat diet containing 0.5% w/w EGCG, free access to running wheel (High fat+EGCG exercise, n=10) The duration of the treatment was 2 months. During this period all mice received food and water ad libitum. Mice in groups 4 and 5 had unlimited access to running wheels (Technical & Scientific Equipment GmbH, Bad Homburg, Germany). Daily voluntary running wheel activity was monitored. At the end of the treatment period, maximal running performance on a rodent treadmill (Technical & Scientific Equipment GmbH, Bad Homburg, Germany) was determined. The Gastrocnemius muscles were excised, frozen in liquid nitrogen and stored at −80° C. for later quantification of the fiber type. In the medial gastrocnemius, skeletal muscle fibers were quantified as Type I, Type IIA, Type D/X, Type IIB by immune-histochemistry utilizing fiber specific antibodies and by histochemistry using a cytochrome oxidase staining.

[2] = tested on: C57BL/6J mice; test: Daily voluntary running wheel activity of mice on high-fat diet; format: in vivo; settings: male C57BL/6J mice, high-fat diet containing 0.5% w/w EGCG, free access to running wheel, 2 months; P<0.004 vs high-fat diet alone
From the text: as §1, with “During this period all mice received food and water ad libitum. Mice in groups 4 and 5 had unlimited access to running wheels (Technical & Scientific Equipment GmbH, Bad Homburg, Germany).” left out

[3] = High fat + EGCG (0.5% w/w) exercise (running wheel)
[4] = High fat + EGCG (0.5% w/w) sedentary

Substance: (−)-epigallocatechin gallate [EGCG]
- Percentage of Type I fibers in medial gastrocnemius muscle [1, 3]: 12.8%
- Percentage of Type IIa fibers in medial gastrocnemius muscle [1, 3]: 54.2%
- Percentage of Type IIb fibers in medial gastrocnemius muscle [1, 3]: 27.8%
- Percentage of Type IId/x fibers in medial gastrocnemius muscle [1, 3]: 5.1%
- Percentage of Type I fibers in medial gastrocnemius muscle [1, 4]: 12.5%
- Percentage of Type IIa fibers in medial gastrocnemius muscle [1, 4]: 53.5%
- Percentage of Type IIb fibers in medial gastrocnemius muscle [1, 4]: 28.8%
- Percentage of Type IId/x fibers in medial gastrocnemius muscle [1, 4]: 5.2%
- voluntary running wheel activity, average distance run per day [2]: 3140.3±43.3 m per day
